Reference: the kinase profiling compilation of Christmann-Franck et al. (2016)

Assays:
Experiment in all cases: KINOMEscan competition binding
MAP3K10 (human) = MAP3K10 (human) (UniProt Q02779)
LATS1 (human) = LATS1 (human) (UniProt O95835)
FLT3 (human) = FLT3 (human) (UniProt P36888)
CSNK1A1 (human) = CSNK1A1 (human) (UniProt P48729)
DCLK3 (human) = DCLK3 (human) (UniProt Q9C098)
MAPK9 (human) = MAPK9 (human) (UniProt P45984)
MAP2K3 (human) = MAP2K3 (human) (UniProt P46734)
BMPR2 (human) = BMPR2 (human) (UniProt Q13873)
CDK16 (human) = CDK16 (human) (UniProt Q00536)
AURKB (human) = AURKB (human) (UniProt Q96GD4)
MAPK3 (human) = MAPK3 (human) (UniProt P27361)
TSSK1B (human) = TSSK1B (human) (UniProt Q9BXA7)
NTRK3 (human) = NTRK3 (human) (UniProt Q16288)
CDC42BPG (human) = CDC42BPG (human) (UniProt Q6DT37)
Chain of CDC42BPG (human) (Q6DT37 whole entry, looked up): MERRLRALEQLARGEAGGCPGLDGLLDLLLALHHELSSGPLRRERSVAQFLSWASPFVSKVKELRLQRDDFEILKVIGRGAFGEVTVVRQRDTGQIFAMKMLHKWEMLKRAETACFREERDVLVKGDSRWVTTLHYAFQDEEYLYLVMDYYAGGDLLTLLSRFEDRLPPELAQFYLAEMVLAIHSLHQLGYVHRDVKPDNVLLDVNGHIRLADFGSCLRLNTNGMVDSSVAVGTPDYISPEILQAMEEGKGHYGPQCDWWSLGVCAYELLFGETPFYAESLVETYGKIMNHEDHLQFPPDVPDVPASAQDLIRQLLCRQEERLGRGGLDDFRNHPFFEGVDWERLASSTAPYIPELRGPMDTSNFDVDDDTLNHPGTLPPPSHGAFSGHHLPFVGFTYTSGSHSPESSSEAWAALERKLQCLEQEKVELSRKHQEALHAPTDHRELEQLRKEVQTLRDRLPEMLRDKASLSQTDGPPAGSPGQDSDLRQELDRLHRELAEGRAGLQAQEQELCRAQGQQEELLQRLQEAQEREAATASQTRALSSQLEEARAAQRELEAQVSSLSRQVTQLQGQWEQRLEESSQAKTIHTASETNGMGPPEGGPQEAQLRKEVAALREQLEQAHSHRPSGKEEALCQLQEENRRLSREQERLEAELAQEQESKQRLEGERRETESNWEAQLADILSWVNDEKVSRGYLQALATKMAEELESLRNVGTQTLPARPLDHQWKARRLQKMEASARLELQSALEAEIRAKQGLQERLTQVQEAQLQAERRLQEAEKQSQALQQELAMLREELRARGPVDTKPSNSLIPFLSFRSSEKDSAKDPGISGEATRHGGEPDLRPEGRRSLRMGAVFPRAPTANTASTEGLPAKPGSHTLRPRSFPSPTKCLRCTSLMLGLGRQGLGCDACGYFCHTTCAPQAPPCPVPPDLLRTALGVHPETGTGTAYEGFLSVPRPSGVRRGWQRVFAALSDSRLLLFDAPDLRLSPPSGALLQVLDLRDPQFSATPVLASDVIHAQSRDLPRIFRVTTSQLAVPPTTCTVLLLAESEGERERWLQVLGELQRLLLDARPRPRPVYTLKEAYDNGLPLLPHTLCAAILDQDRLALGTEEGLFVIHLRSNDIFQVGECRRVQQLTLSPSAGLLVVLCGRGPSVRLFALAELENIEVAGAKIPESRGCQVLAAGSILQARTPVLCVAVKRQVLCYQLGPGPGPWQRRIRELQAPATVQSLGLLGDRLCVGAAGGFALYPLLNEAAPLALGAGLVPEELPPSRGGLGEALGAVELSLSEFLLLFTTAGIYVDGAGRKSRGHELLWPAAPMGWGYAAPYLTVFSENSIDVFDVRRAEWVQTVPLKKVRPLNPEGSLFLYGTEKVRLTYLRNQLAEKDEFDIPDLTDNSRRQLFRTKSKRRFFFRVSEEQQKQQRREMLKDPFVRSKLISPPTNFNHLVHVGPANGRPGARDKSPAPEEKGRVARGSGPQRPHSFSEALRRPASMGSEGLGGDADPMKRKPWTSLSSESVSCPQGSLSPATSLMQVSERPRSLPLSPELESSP

[1] = tested on: FLT3 (human), P36888 [K663Q]
ACVR2A (human) = ACVR2A (human) (UniProt P27037)
MET (human) = MET (human) (UniProt P08581)
MARK2 (human) = MARK2 (human) (UniProt Q7KZI7)
MAPK13 (human) = MAPK13 (human) (UniProt O15264)
MINK1 (human) = MINK1 (human) (UniProt Q8N4C8)
CDK3 (human) = CDK3 (human) (UniProt Q00526)
MAP4K3 (human) = MAP4K3 (human) (UniProt Q8IVH8)
STK33 (human) = STK33 (human) (UniProt Q9BYT3)
PAK7 (human) = PAK7 (human) (UniProt Q9P286)
KIT (human) = KIT (human) (UniProt P10721)
Chain of KIT (human) (P10721 whole entry, looked up): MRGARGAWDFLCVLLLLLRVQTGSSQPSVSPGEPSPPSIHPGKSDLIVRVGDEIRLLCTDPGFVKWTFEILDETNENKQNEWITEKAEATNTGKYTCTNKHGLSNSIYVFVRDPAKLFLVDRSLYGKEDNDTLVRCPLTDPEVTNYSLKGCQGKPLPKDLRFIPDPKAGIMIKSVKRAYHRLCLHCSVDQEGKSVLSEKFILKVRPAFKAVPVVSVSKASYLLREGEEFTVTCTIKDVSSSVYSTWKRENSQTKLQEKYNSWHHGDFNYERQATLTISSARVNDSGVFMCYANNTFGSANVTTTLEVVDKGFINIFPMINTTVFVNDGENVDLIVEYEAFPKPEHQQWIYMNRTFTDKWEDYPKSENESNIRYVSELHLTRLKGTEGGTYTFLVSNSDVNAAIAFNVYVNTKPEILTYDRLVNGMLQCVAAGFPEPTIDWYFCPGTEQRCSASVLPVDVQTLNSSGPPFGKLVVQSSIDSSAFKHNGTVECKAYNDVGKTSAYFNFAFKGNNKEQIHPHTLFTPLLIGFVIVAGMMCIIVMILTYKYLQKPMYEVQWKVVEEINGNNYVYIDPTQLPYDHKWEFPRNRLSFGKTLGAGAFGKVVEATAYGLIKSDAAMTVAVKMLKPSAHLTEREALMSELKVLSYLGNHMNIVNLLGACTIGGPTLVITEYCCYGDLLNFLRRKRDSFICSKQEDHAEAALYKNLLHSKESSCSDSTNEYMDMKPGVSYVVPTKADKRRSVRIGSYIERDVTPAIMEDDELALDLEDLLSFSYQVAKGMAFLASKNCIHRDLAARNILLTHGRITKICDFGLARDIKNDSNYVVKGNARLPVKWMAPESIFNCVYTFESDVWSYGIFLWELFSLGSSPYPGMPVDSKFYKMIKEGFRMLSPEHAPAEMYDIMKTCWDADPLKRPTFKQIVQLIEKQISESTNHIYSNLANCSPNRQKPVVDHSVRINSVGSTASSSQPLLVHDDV

ULK3 (human) = ULK3 (human) (UniProt Q6PHR2)
[2] = tested on: FLT3 (human), P36888 [D835Y]
[3] = tested on: PIK3CA (human), P42336 [Q546K]
CPK1 (P.falciparum) = tested on: CPK1 (P.falciparum)
ULK1 (human) = ULK1 (human) (UniProt O75385)
TEK (human) = TEK (human) (UniProt Q02763)
Chain of TEK (human) (Q02763 whole entry, looked up): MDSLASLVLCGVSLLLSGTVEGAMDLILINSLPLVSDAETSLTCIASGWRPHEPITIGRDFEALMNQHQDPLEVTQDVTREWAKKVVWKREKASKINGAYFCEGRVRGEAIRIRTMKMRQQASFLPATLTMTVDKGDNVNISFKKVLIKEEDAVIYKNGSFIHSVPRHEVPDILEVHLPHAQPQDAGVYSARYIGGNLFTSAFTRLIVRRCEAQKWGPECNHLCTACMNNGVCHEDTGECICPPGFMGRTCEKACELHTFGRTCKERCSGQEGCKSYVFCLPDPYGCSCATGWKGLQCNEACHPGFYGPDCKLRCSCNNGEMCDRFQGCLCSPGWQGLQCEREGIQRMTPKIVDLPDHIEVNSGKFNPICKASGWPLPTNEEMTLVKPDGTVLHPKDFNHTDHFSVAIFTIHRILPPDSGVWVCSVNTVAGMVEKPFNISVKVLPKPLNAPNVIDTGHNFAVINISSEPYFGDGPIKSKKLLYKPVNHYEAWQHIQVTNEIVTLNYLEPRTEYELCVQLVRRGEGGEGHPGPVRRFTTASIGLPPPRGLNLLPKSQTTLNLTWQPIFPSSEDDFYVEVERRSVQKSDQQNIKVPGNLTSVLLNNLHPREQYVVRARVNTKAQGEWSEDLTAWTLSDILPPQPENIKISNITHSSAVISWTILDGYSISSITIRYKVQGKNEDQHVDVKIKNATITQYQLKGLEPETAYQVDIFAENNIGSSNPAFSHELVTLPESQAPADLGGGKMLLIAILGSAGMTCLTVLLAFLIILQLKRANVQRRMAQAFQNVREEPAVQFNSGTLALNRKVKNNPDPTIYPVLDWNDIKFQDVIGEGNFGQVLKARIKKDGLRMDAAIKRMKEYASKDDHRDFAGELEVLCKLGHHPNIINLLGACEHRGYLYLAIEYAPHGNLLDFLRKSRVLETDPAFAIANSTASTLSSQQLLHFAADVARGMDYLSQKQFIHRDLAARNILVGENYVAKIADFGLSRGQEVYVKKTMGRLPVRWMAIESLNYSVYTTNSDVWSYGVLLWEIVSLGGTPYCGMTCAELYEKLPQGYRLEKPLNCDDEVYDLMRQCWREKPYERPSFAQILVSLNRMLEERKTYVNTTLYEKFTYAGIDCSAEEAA

CDK15 (human) = CDK15 (human) (UniProt Q96Q40)
Chain of CDK15 (human) (Q96Q40 whole entry, looked up): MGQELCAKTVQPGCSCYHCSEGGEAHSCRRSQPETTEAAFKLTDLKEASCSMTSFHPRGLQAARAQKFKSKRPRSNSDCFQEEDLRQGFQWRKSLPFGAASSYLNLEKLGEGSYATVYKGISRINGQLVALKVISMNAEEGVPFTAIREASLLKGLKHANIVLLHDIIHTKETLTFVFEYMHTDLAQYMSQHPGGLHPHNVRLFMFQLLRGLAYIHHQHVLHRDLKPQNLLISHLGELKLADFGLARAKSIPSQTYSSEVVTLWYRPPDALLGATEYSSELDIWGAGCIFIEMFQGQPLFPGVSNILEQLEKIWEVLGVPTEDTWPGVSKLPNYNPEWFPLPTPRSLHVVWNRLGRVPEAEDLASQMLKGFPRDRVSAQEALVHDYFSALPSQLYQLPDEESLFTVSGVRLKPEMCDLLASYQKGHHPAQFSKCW

PKN3 (M.tuberculosis) = PKN3 (M.tuberculosis) (UniProt Q6P5Z2)
MAPKAPK5 (human) = MAPKAPK5 (human) (UniProt Q8IW41)
TNNI3K (human) = TNNI3K (human) (UniProt Q59H18)
DSTYK (human) = DSTYK (human) (UniProt Q6XUX3)
HIPK2 (human) = HIPK2 (human) (UniProt Q9H2X6)
EIF2AK1 (human) = EIF2AK1 (human) (UniProt Q9BQI3)
NLK (human) = NLK (human) (UniProt Q9UBE8)
MYO3B (human) = MYO3B (human) (UniProt Q8WXR4)
PTK2 (human) = PTK2 (human) (UniProt Q05397)
STK32A (human) = STK32A (human) (UniProt Q8WU08)
MAPK10 (human) = MAPK10 (human) (UniProt P53779)
Chain of MAPK10 (human) (P53779 whole entry, looked up): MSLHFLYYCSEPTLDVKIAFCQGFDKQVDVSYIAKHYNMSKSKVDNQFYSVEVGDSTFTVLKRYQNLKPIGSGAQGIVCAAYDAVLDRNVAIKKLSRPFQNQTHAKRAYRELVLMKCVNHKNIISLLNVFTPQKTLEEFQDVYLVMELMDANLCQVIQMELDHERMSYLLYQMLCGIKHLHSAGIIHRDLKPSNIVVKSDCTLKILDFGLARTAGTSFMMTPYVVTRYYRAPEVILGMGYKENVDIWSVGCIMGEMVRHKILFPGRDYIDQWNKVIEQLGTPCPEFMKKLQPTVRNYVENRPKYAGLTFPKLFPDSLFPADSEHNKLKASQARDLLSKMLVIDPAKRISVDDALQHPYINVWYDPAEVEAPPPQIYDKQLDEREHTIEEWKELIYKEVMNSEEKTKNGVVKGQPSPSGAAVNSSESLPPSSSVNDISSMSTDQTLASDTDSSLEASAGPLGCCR

Chain of MAPK9 (human) (P45984 whole entry, looked up): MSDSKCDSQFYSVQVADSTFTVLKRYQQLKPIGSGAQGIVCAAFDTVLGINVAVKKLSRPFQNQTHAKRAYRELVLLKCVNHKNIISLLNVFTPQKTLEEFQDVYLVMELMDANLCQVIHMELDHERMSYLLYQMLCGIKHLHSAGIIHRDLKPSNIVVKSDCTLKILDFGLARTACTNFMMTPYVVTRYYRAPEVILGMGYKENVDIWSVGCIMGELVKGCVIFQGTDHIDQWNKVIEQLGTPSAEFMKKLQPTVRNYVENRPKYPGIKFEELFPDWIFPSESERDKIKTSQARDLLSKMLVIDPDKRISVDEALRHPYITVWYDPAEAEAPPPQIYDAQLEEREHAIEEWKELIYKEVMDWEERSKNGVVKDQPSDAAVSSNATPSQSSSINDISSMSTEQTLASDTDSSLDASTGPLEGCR

Work on CN(C)C/C=C/C(=O)Nc1cccc(C(=O)Nc2ccc(Nc3nccc(-c4c(-c5ccccc5)nn5ccccc45)n3)cc2)c1 yielded a kinase still bound, per cent of control (MAP3K10 (human); compound 1.0 µM) of 100%, a kinase still bound, per cent of control (LATS1 (human); compound 1.0 µM) of 95% and a kinase still bound, per cent of control (FLT3 (human); compound 1.0 µM) of 1%. The kinase still bound, per cent of control (CSNK1A1 (human); compound 1.0 µM) was 2%, the kinase still bound, per cent of control (DCLK3 (human); compound 1.0 µM) was 86% and the kinase still bound, per cent of control (MAPK9 (human); compound 1.0 µM) was 0%. It also gave a kinase still bound, per cent of control (MAP2K3 (human); compound 1.0 µM) of 58%, a kinase still bound, per cent of control (BMPR2 (human); compound 1.0 µM) of 100% and a kinase still bound, per cent of control (CDK16 (human); compound 1.0 µM) of 100%. For the same compound, the kinase still bound, per cent of control (AURKB (human); compound 1.0 µM) was 85%, the kinase still bound, per cent of control (MAPK3 (human); compound 1.0 µM) was 100% and the kinase still bound, per cent of control (TSSK1B (human); compound 1.0 µM) was 86%. For the same compound, the kinase still bound, per cent of control (NTRK3 (human); compound 1.0 µM) was 84%, the Kd (CDC42BPG (human)) was 18 nM and the kinase still bound, per cent of control (CDC42BPG (human); compound 1.0 µM) was 0.25%. The kinase still bound, per cent of control ([1]; compound 1.0 µM) was 12%, the kinase still bound, per cent of control (ACVR2A (human); compound 1.0 µM) was 5.1% and the kinase still bound, per cent of control (MET (human); compound 1.0 µM) was 55%. It also gave a kinase still bound, per cent of control (MARK2 (human); compound 1.0 µM) of 98%, a kinase still bound, per cent of control (MAPK13 (human); compound 1.0 µM) of 100% and a kinase still bound, per cent of control (MINK1 (human); compound 1.0 µM) of 46%. It also gave a kinase still bound, per cent of control (CDK3 (human); compound 1.0 µM) of 100%, a kinase still bound, per cent of control (MAP4K3 (human); compound 1.0 µM) of 59% and a kinase still bound, per cent of control (STK33 (human); compound 1.0 µM) of 91%. The kinase still bound, per cent of control (PAK7 (human); compound 1.0 µM) was 92%, the kinase still bound, per cent of control (KIT (human); compound 1.0 µM) was 0.15% and the kinase still bound, per cent of control (ULK3 (human); compound 1.0 µM) was 84%. It also gave a kinase still bound, per cent of control ([2]; compound 1.0 µM) of 54%, a kinase still bound, per cent of control ([3]; compound 1.0 µM) of 100% and a kinase still bound, per cent of control (CPK1 (P.falciparum); compound 1.0 µM) of 0.6%. It also gave a kinase still bound, per cent of control (ULK1 (human); compound 1.0 µM) of 87%, a kinase still bound, per cent of control (TEK (human); compound 1.0 µM) of 67% and a kinase still bound, per cent of control (CDK15 (human); compound 1.0 µM) of 100%. It also gave a kinase still bound, per cent of control (PKN3 (M.tuberculosis); compound 1.0 µM) of 100%, a kinase still bound, per cent of control (MAPKAPK5 (human); compound 1.0 µM) of 100% and a kinase still bound, per cent of control (TNNI3K (human); compound 1.0 µM) of 100%. The kinase still bound, per cent of control (DSTYK (human); compound 1.0 µM) was 80%, the kinase still bound, per cent of control (HIPK2 (human); compound 1.0 µM) was 97% and the kinase still bound, per cent of control (EIF2AK1 (human); compound 1.0 µM) was 76%. For the same compound, the kinase still bound, per cent of control (NLK (human); compound 1.0 µM) was 12%, the kinase still bound, per cent of control (MYO3B (human); compound 1.0 µM) was 97% and the kinase still bound, per cent of control (PTK2 (human); compound 1.0 µM) was 95%. For the same compound, the kinase still bound, per cent of control (STK32A (human); compound 1.0 µM) was 35% and the kinase still bound, per cent of control (MAPK10 (human); compound 1.0 µM) was 0%.

In the case of Cc1ccc(NC(=O)c2ccc(NC(=O)/C=C/CN(C)C)cc2)cc1Nc1nccc(-c2cccnc2)n1, the kinase still bound, per cent of control (MAP3K10 (human); compound 10.0 µM) is reported as 100%, the kinase still bound, per cent of control (LATS1 (human); compound 10.0 µM) is reported as 100% and the kinase still bound, per cent of control (FLT3 (human); compound 10.0 µM) is reported as 75%. The kinase still bound, per cent of control (CSNK1A1 (human); compound 10.0 µM) was 55%, the kinase still bound, per cent of control (DCLK3 (human); compound 10.0 µM) was 100% and the Kd (MAPK9 (human)) was 160 nM. For the same compound, the kinase still bound, per cent of control (MAPK9 (human); compound 10.0 µM) was 1.1%, the kinase still bound, per cent of control (MAP2K3 (human); compound 10.0 µM) was 50% and the kinase still bound, per cent of control (BMPR2 (human); compound 10.0 µM) was 86%. For the same compound, the kinase still bound, per cent of control (CDK16 (human); compound 10.0 µM) was 100%, the kinase still bound, per cent of control (AURKB (human); compound 10.0 µM) was 86% and the kinase still bound, per cent of control (MAPK3 (human); compound 10.0 µM) was 100%. The kinase still bound, per cent of control (TSSK1B (human); compound 10.0 µM) was 100%, the kinase still bound, per cent of control (NTRK3 (human); compound 10.0 µM) was 82% and the kinase still bound, per cent of control (CDC42BPG (human); compound 10.0 µM) was 86%. For the same compound, the kinase still bound, per cent of control ([1]; compound 10.0 µM) was 84%, the kinase still bound, per cent of control (ACVR2A (human); compound 10.0 µM) was 82% and the kinase still bound, per cent of control (MET (human); compound 10.0 µM) was 100%. The kinase still bound, per cent of control (MARK2 (human); compound 10.0 µM) was 78%, the kinase still bound, per cent of control (MAPK13 (human); compound 10.0 µM) was 87% and the kinase still bound, per cent of control (MINK1 (human); compound 10.0 µM) was 64%. It also gave a kinase still bound, per cent of control (CDK3 (human); compound 10.0 µM) of 100%, a kinase still bound, per cent of control (MAP4K3 (human); compound 10.0 µM) of 78% and a kinase still bound, per cent of control (STK33 (human); compound 10.0 µM) of 97%. For the same compound, the kinase still bound, per cent of control (PAK7 (human); compound 10.0 µM) was 72%, the Kd (KIT (human)) was 30 nM and the kinase still bound, per cent of control (KIT (human); compound 10.0 µM) was 0%. It also gave a kinase still bound, per cent of control (ULK3 (human); compound 10.0 µM) of 100%, a kinase still bound, per cent of control ([2]; compound 10.0 µM) of 33% and a kinase still bound, per cent of control ([3]; compound 10.0 µM) of 94%. For the same compound, the kinase still bound, per cent of control (CPK1 (P.falciparum); compound 10.0 µM) was 86%, the kinase still bound, per cent of control (ULK1 (human); compound 10.0 µM) was 23% and the kinase still bound, per cent of control (TEK (human); compound 10.0 µM) was 93%. The kinase still bound, per cent of control (CDK15 (human); compound 10.0 µM) was 100%, the kinase still bound, per cent of control (PKN3 (M.tuberculosis); compound 10.0 µM) was 86% and the kinase still bound, per cent of control (MAPKAPK5 (human); compound 10.0 µM) was 74%. It also gave a kinase still bound, per cent of control (TNNI3K (human); compound 10.0 µM) of 100%, a kinase still bound, per cent of control (DSTYK (human); compound 10.0 µM) of 81% and a kinase still bound, per cent of control (HIPK2 (human); compound 10.0 µM) of 54%. The kinase still bound, per cent of control (EIF2AK1 (human); compound 10.0 µM) was 94%, the kinase still bound, per cent of control (NLK (human); compound 10.0 µM) was 100% and the kinase still bound, per cent of control (MYO3B (human); compound 10.0 µM) was 100%. For the same compound, the kinase still bound, per cent of control (PTK2 (human); compound 10.0 µM) was 70%, the kinase still bound, per cent of control (STK32A (human); compound 10.0 µM) was 50% and the Kd (MAPK10 (human)) was 100 nM. It also gave a kinase still bound, per cent of control (MAPK10 (human); compound 10.0 µM) of 0.25%.
